{"source": "patent US12389931B2", "about": "“Oyster peptide with effect of improving sexual function and preparation method thereof” (priority 2019, dated 2025)", "key": {"[1]": {"test_system": "dihydrotestosterone secretion in TM3 cells", "assay": "Dihydrotestosterone secreted by TM3 cells (ELISA)", "assay_type": "cell-based, mouse", "conditions": "sildenafil 200 μg/mL, positive control in dihydrotestosterone test, FIG. 16", "procedure": "3. Dihydrotestosterone (DHT) Content\nTM3 cells was cultured with the oyster peptide culture solution for 24 h, the obtained culture solution was centrifuged, a supernatant was taken and mixed uniformly, and the content of dihydrotestosterone was detected according to instructions of ELISA kit.\nOperation procedure for detecting dihydrotestosterone: (1) Standards were added into standard wells at 50 μL/well. (2) 40 μL of sample diluent was added to sample wells and then 10 μL of the sample to be tested was added, and nothing was added to the blank wells. (3) The reaction wells were sealed with the plate-sealing film and incubated at 37° C. for 45 min. […] (10) A stop solution was added at 50 μL/well and mixed uniformly and then the OD450 value was measured.\nDihydrotestosterone is a steroid hormone secreted by testes and a main male hormone in the human body, is related to the development of male secondary sexual characteristics and plays an important role in maintaining normal sexual desire. In this test example, the oyster peptide culture solutions of Example 1 at different concentrations and the oyster peptide culture solutions of Examples 1-3 and Comparative Examples 1-4 at the same concentration were used to treat TM3 cells for 24 h, and then the supernatants of cells were collected, and the contents of dihydrotestosterone secreted by the cells were measured by the ELISA method. […]"}, "NO content in TM3 cells": {"test_system": "NO content in TM3 cells", "assay": "NO content in TM3 cells (NO determination kit)", "assay_type": "cell-based, mouse", "conditions": "sildenafil 200 μg/mL, vs control group (p<0.05), FIG. 18", "procedure": "4. Detection of NO Content\nTM3 cells were cultured with the oyster peptide culture solution for 24 h, the obtained culture solution was centrifuged, a supernatant was taken and mixed uniformly, and the content of NO was detected according to instructions of NO determination kit.\nOperation procedure for detecting NO: (1) Reagent preparation: all reagents were taken out and equilibrated to room temperature for use. (2) 100 μM standard working solution: 5 μL of concentrated standard was added to 495 μL of reaction buffer and mixed well. […] After the incubation was over, the microplate was taken out, placed into an incubator at 37° C. and further incubated for 60 min, and then taken out and placed into a microplate reader for reading at 540 nm. (5) Quantitative calculation of total nitric oxide in samples:\nNO is a small fat-soluble molecule with unstable chemical properties and is produced by a catalyzed reaction of nitric oxide synthase in a body, and it can cause the expansion of blood vessels in the body. […] The effect of the oyster peptide on the NO content in TM3 cells was detected according to the instructions of NO determination kit. […]"}}, "data": [{"compound": "CCCc1nn(C)c2c(=O)[nH]c(-c3cc(S(=O)(=O)N4CCN(C)CC4)ccc3OCC)nc12", "note": "[sildenafil]", "values": [{"measurement": "dihydrotestosterone secreted by TM3 cells", "setting": "[1]", "value": "significantly promoting"}, {"measurement": "NO content in TM3 cells", "setting": "NO content in TM3 cells", "value": "increased significantly"}]}]}
